Data on 20 compounds can be found in patent publication US11833156B2, “Heterocyclic compounds as pad inhibitors” (JUBILANT EPIPAD LLC, priority 2017, dated 2023).

The test deals with PAD4 enzyme (Homo sapiens (Human), UniProt Q9UM07). Description: Ammonia Release Biochemical Assay (citrullination detected via ammonia release). The settings on record: PAD4 120 nM, substrate BAEE, 60-min preincubation, read-out: NH3 release. The protocol: Ammonia Release Biochemical Assay
Citrullination assay was detected via ammonia release. PAD4 enzyme was diluted to 120 nM in assay buffer (100 mM HEPES, 50 mM NaCl, 2 mM DDT, 0.6 mg/mL BSA, pH 7.4) added to wells containing various concentration of compound or DMSO vehicle (1% final) in black 384 well plate. Following a 60-min preincubation at room temperature, the reaction was initiated by the addition of substrate (1.5 mM BAEE in 200 mM HEPES, 50 mM NaCl, 350 uM CaCl2, 2 mM, pH 7.4). The reaction was stopped after 60 min by addition of stop/detection buffer containing 50 mM EDTA, 2.6 mM of o-phthaladehyde and 2.6 mM DTT. Assay was incubated at room temperature for 90 min before measuring fluorescence's (λex 405/λem 460 nm) on Tecan reader. IC50 was calculated using XL-fit software model 205. (Ref: Nat Chem Biol. 2015 March; 11(3):189-91).

Sequence of PAD4 enzyme (Q9UM07 whole entry): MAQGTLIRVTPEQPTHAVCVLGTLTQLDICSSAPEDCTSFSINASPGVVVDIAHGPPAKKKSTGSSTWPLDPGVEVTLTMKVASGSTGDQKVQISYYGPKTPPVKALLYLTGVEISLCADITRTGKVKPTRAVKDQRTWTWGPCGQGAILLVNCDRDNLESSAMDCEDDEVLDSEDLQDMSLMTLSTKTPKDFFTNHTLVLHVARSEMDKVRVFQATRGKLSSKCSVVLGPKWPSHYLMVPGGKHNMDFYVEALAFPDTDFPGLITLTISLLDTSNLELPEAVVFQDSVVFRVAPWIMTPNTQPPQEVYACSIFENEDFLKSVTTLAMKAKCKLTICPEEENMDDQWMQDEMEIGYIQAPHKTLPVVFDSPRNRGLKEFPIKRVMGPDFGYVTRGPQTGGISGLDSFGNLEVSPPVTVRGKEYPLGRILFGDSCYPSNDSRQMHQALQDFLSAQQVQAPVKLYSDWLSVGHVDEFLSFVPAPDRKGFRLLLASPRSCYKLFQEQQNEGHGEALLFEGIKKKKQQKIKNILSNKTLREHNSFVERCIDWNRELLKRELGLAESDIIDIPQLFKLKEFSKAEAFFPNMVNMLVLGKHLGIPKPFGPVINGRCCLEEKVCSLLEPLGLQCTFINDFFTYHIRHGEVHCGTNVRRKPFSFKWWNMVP

Take `N[C@@H]1CCN(C(=O)c2cc3c4c(c2)nc(-c2cc5ccccc5n2CC2CC2)n4CCCO3)C1` [Example 7, (R)-(3-aminopyrrolidin-1-yl)(1-(1-(cyclopropylmethyl)-1H-indol-2-yl)-8,9-dihydro-7H-6-oxa-2,9a-diazabenzo[cd]azulen-4-yl)methanone]: the IC50 was in the range of 1000 to 10000 nM. In the case of `CC1(C)COc2cc(C(=O)N3CCC[C@@H](N)C3)cc3nc(-c4cc5ccccc5n4CC4CC4)n1c23` [Example 62, (R)-(3-aminopiperidin-1-yl)(2-(1-(cyclopropylmethyl)-1H-indol-2-yl)-3,3-dimethyl-3,4-dihydro-5-oxa-1,2a-diazaacenaphthylen-7-yl)methanone], the IC50 was no less than 10000 nM. For the compound `CC(C)Cn1c(-c2nc3cc(C(=O)N4CCC[C@@H](N)C4)cc4c3n2CCO4)cc2ccccc21` [Example 31, (R)-(3-aminopiperidin-1-yl)(2-(1-isobutyl-1H-indol-2-yl)-3,4-dihydro-5-oxa-1,2a-diazaacenaphthylen-7-yl)methanone], the IC50 is no more than 1000 nM. To `N[C@@H]1CCCN(C(=O)c2cc3c4c(c2)nc(-c2cc5ccccc5n2Cc2cccnn2)n4CCO3)C1` [Example 30, (R)-(3-aminopiperidin-1-yl)(2-(1-(pyridazin-3-ylmethyl)-1H-indol-2-yl)-3,4-dihydro-5-oxa-1,2a-diazaacenaphthylen-7-yl)methanone] belongs 1000 to 10000 nM. Consider `COc1ccc2cc(-c3nc4cc(C(=O)N5CCC[C@@H](N)C5)cc5c4n3CCO5)n(Cc3ncccc3F)c2c1` [Example 33, (R)-(3-aminopiperidin-1-yl)(2-(1-((3-fluoropyridin-2-yl)methyl)-6-methoxy-1H-indol-2-yl)-3,4-dihydro-5-oxa-1,2a-diazaacenaphthylen-7-yl)methanone], for which the IC50 was no more than 1000 nM. To `COc1ccc2cc(-c3nc4cc(C(=O)N5CCC[C@@H](N)C5)cc5c4n3CCO5)n(Cc3ccc(F)cc3)c2c1` [Example 51, (R)-(3-aminopiperidin-1-yl)(2-(1-(4-fluorobenzyl)-6-methoxy-1H-indol-2-yl)-3,4-dihydro-5-oxa-1,2a-diazaacenaphthylen-7-yl)methanone] belongs no more than 1000 nM; to `N[C@@H]1CCCN(C(=O)c2cc3c4c(c2)nc(-c2cc5cc(/C=C/c6ccccc6)ccc5n2CC2CC2)n4CCO3)C1` [Example 58, (R,E)-(3-aminopiperidin-1-yl)(2-(1-(cyclopropylmethyl)-5-styryl-1H-indol-2-yl)-3,4-dihydro-5-oxa-1,2a-diazaacenaphthylen-7-yl)methanone], 1000 to 10000 nM; to `COCCn1c(-c2nc3cc(C(=O)N4CCC[C@@H](N)C4)cc4c3n2CCO4)cc2cc(F)ccc21` [Example 48, (R)-(3-aminopiperidin-1-yl)(2-(5-fluoro-1-(2-methoxyethyl)-1H-indol-2-yl)-3,4-dihydro-5-oxa-1,2a-diazaacenaphthylen-7-yl)methanone], no more than 1000 nM. For the compound `N[C@@H]1CCCN(C(=O)c2cc3c4c(c2)nc(-c2cc5ccccc5n2CC(F)F)n4CCO3)C1` [Example 47, (R)-(3-aminopiperidin-1-yl)(2-(1-(2,2-difluoroethyl)-1H-indol-2-yl)-3,4-dihydro-5-oxa-1,2a-diazaacenaphthylen-7-yl)methanone], the IC50 is no more than 1000 nM. Take `CN1CCC(Cn2c(-c3nc4cc(C(=O)N5CCC[C@@H](N)C5)cc5c4n3CCO5)cc3ccccc32)CC1` [Example 45, (R)-(3-aminopiperidin-1-yl)(2-(1-((l-methylpiperidin-4-yl)methyl)-1H-indol-2-yl)-3,4-dihydro-5-oxa-1,2a-diazaacenaphthylen-7-yl)methanone]: the IC50 is no less than 10000 nM.

On to `N[C@@H]1CCCN(C(=O)c2cc3c4c(c2)nc(-c2cc5ccccc5n2CC2COC2)n4CCO3)C1` [Example 44, (R)-(3-aminopiperidin-1-yl)(2-(1-(oxetan-3-ylmethyl)-1H-indol-2-yl)-3,4-dihydro-5-oxa-1,2a-diazaacenaphthylen-7-yl)methanone], for which the IC50 lay within 1000 to 10000 nM. For `N[C@@H]1CCCN(C(=O)c2cc3c4c(c2)nc(-c2cc5ccccc5n2Cc2ccncc2)n4CCN3)C1` [Example 71, (R)-(3-aminopiperidin-1-yl)(2-(1-(pyridin-4-ylmethyl)-1H-indol-2-yl)-5,6-dihydro-4H-imidazo[1,5,4-de]quinoxalin-8-yl)methanone], the IC50 is no more than 1000 nM. On to `COc1ccc2c(c1)cc(-c1nc3cc(C(=O)N4CCC[C@@H](N)C4)cc4c3n1CCO4)n2CC1CC1` [Example 60, (R)-(3-aminopiperidin-1-yl)(2-(1-(cyclopropylmethyl)-5-methoxy-1H-indol-2-yl)-3,4-dihydro-5-oxa-1,2a-diazaacenaphthylen-7-yl)methanone], for which the IC50 is no more than 1000 nM. Turning to `COCCn1c(-c2nc3cc(C(=O)N4CCC[C@@H](N)C4)cc4c3n2CCO4)cc2ccccc21` [Example 20, (R)-(3-aminopiperidin-1-yl)(2-(1-(2-methoxyethyl)-1H-indol-2-yl)-3,4-dihydro-5-oxa-1,2a-diazaacenaphthylen-7-yl)methanone], the IC50 is no more than 1000 nM. Consider `N[C@@H]1CCCN(C(=O)c2cc3c4c(c2)nc(-c2cc5ccccc5n2Cc2ccccn2)n4CCN3)C1` [Example 69, (R)-(3-aminopiperidin-1-yl)(2-(1-(pyridin-2-ylmethyl)-1H-indol-2-yl)-5,6-dihydro-4H-imidazo[1,5,4-de]quinoxalin-8-yl)methanone], for which the IC50 was no more than 1000 nM. As to `Cc1cccc2cc(-c3nc4cc(C(=O)N5CCC[C@@H](N)C5)cc5c4n3CCN5)n(CC3CC3)c12` [Example 84, (R)-(3-aminopiperidin-1-yl)(2-(1-(cyclopropylmethyl)-7-methyl-1H-indol-2-yl)-5,6-dihydro-4H-imidazo [1,5,4-de]quinoxalin-8-yl)methanone], the IC50 is no more than 1000 nM. For `N[C@@H]1CCCN(C(=O)c2cc3c4c(c2)nc(-c2cc5ccc(CO)cc5n2CC2CC2)n4CCO3)C1` [Example 61, (R)-(3-aminopiperidin-1-yl)(2-(1-(cyclopropylmethyl)-6-(hydroxymethyl)-1H-indol-2-yl)-3,4-dihydro-5-oxa-1,2a-diazaacenaphthylen-7-yl)methanone], the IC50 is no more than 1000 nM. On to `N[C@@H]1CCCN(C(=O)c2cc3c4c(c2)nc(-c2cc5ccccc5n2Cc2ccccc2F)n4CCN3)C1` [Example 70, (R)-(3-aminopiperidin-1-yl)(2-(1-(2-fluorobenzyl)-1H-indol-2-yl)-5,6-dihydro-4H-imidazo[1,5,4-de]quinoxalin-8-yl)methanone], for which the IC50 was no more than 1000 nM.

For the compound `COc1ccc(Cn2c(-c3nc4cc(C(=O)N5CCC[C@@H](N)C5)cc5c4n3CCO5)cc3ccc(F)cc32)cc1` [Example 50, (R)-(3-aminopiperidin-1-yl)(2-(6-fluoro-1-(4-methoxybenzyl)-1H-indol-2-yl)-3,4-dihydro-5-oxa-1,2a-diazaacenaphthylen-7-yl)methanone], the IC50 is no more than 1000 nM. Turning to `CCn1c(-c2nc3cc(C(=O)N4CCC[C@@H](N)C4)cc4c3n2CCO4)cc2ccccc21` [Example 3, (R)-(3-aminopiperidin-1-yl)(2-(1-ethyl-1H-indol-2-yl)-3,4-dihydro-5-oxa-1,2a-diazaacenaphthylen-7-yl)methanone], the IC50 was in the range of 1000 to 10000 nM.
